Experimental data published in PubChem BioAssay (NCI).
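Interpolation was linear, between the two tested concentrations surrounding the appropriate level; five concentrations were tested over 48 hours in 96-well plates. Definition used: TGI = concentration required for complete inhibition of growth.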

Experiments:
Experiment in all cases: NCI-60 cell line screen, 48 h
[1] = test system: 786-0 renal
[2] = test system: BT-549 breast
[3] = test system: CAKI-1 renal
[4] = test system: IGROV1 ovarian
[5] = test system: KM12 colon
[6] = test system: MALME-3M melanoma
[7] = test system: MCF7 breast
[8] = test system: MDA-MB-435
[9] = test system: NCI-H226 lung
[10] = test system: NCI-H23 lung
[11] = test system: SK-MEL-28 melanoma
[12] = test system: SK-OV-3 ovarian
[13] = test system: SNB-19 CNS
[14] = test system: SNB-75 CNS
[15] = test system: SW-620 colon
[16] = test system: TK-10 renal
[17] = test system: U251 CNS
[18] = test system: UACC-257 melanoma
[19] = test system: UACC-62 melanoma
[20] = test system: UO-31 renal

SMILES | TGI [1] | TGI [2] | TGI [3] | TGI [4] | TGI [5] | TGI [6] | TGI [7] | TGI [8] | TGI [9] | TGI [10] | TGI [11] | TGI [12] | TGI [13] | TGI [14] | TGI [15] | TGI [16] | TGI [17] | TGI [18] | TGI [19] | TGI [20]
O=C(O)C(F)(F)C(F)(F)C(F)(F)C(F)(F)C(=O)O | > 100 µM | > 100 µM | > 100 µM | > 100 µM | > 100 µM | > 100 µM | > 100 µM | > 100 µM | > 100 µM | > 100 µM | > 100 µM | > 100 µM | > 100 µM | > 100 µM | > 100 µM | > 100 µM | > 100 µM | > 100 µM | > 100 µM | > 100 µM
COc1ccc(C2c3cc4c(cc3OC(NNC(N)=O)C2C)OCO4)cc1 (stereo not given) | 37.5 µM | > 95.7 µM | > 100 µM | > 100 µM | > 100 µM | > 100 µM | > 100 µM | 8.2 µM | > 76.2 µM | > 86.1 µM | > 100 µM | > 100 µM | > 100 µM | > 33.3 µM | > 100 µM | > 100 µM | 35.2 µM | > 100 µM | > 70.2 µM | > 90.5 µM
O=c1[nH]nc(Cc2ccccc2)n1/N=C/c1ccc([N+](=O)[O-])o1 | 22.7 µM | 1.7 µM | 25 µM | 15.7 µM | 6.49 µM | 3.21 µM | > 100 µM | 3.8 µM | 29.5 µM | 74.8 µM | 17.6 µM | > 100 µM | 38.1 µM | 15 µM | > 100 µM | 17.6 µM | 16.3 µM | 19.7 µM | 4.56 µM | > 100 µM
Cc1ccccc1C(=O)C#Cc1cn(C2CC(O)C(CO)O2)c(=O)[nH]c1=O (stereo not given) | > 100 µM | > 100 µM | > 100 µM | > 100 µM | > 100 µM | 35.1 µM | > 100 µM | > 100 µM | > 100 µM | > 100 µM | > 100 µM | > 100 µM | > 100 µM | > 100 µM | > 100 µM | > 100 µM | > 100 µM | > 100 µM | > 100 µM | > 100 µM
CC(C)=CCC/C(=C\CC/C(=C\CCc1ccoc1)C(=O)O)C(=O)O | > 100 µM | > 100 µM | > 100 µM | > 100 µM | > 100 µM | > 100 µM | > 100 µM | > 100 µM | > 100 µM | > 100 µM | > 100 µM | > 100 µM | > 100 µM | > 100 µM | > 100 µM | > 100 µM | > 100 µM | > 100 µM | > 100 µM | > 100 µM
